In PubChem BioAssay (NCI):
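Test compounds were applied to cells in 96-well plates for 48 hours at 5 doses. GI50: concentration for 50% inhibition of growth. Definition used: TGI = concentration required for complete inhibition of growth.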

Key:
Assay in all cases: NCI tumour cell line growth inhibition, 48 h
MDA-N = tested on: MDA-N
DLD-1 colon = tested on: DLD-1 colon
DMS 114 small cell lung = tested on: DMS 114 small cell lung
HOP-18 NSCLC = tested on: HOP-18 NSCLC
RXF-631 renal = tested on: RXF-631 renal
SNB-78 CNS = tested on: SNB-78 CNS
XF 498 CNS = tested on: XF 498 CNS
P388 leukemia = tested on: P388 leukemia
P388/ADR leukemia = tested on: P388/ADR leukemia
SN12K1 renal = tested on: SN12K1 renal

| Structure (SMILES) | TGI (DLD-1 colon) | TGI (DMS 114 small cell lung) | TGI (HOP-18 NSCLC) | TGI (RXF-631 renal) | TGI (SNB-78 CNS) | TGI (XF 498 CNS) | also measured |
| --- | --- | --- | --- | --- | --- | --- | --- |
| NC(CSC1c2ccccc2-c2ccccc21)C(=O)O (stereo not given) |  |  |  |  |  |  | TGI (MDA-N): > 100 µM |
| Fc1ccc(C2SCc3nc4ccccc4n32)c(F)c1 (stereo not given) | > 100 µM | > 100 µM | > 100 µM | > 100 µM | > 100 µM |  |  |
| Cc1c(/C=N/N=C/c2[nH]c(C(=O)OC(C)(C)C)c(C)c2C)[nH]c(C(=O)OC(C)(C)C)c1C | > 100 µM | > 100 µM | > 100 µM |  | > 100 µM |  |  |
| O=C(NC1CCCCC1)NS(=O)(=O)c1ccc2c(c1)CCC2 | > 100 µM | > 100 µM | > 100 µM | > 100 µM |  | > 100 µM |  |
| COc1ccc(C=O)c([N+](=O)[O-])c1 |  | 66.9 µM | > 100 µM | > 100 µM | > 100 µM | > 100 µM |  |
| O=C(O)c1ccc(C(=O)c2ccccc2)c(C(=O)O)c1 |  |  |  |  |  |  | TGI (MDA-N): > 100 µM |
| Cc1cccc(C)c1NC(=O)/C(=N/NC(N)=S)C(C)C(=O)c1ccc(Cl)cc1 (stereo not given) | > 100 µM | > 100 µM | > 100 µM | > 100 µM | > 100 µM | > 100 µM |  |
| COC(=O)C1CC2CC(=NNC(N)=O)CC2C1 (stereo not given) | > 100 µM | > 100 µM |  |  | > 100 µM | > 100 µM |  |
| O=C(O)CN1CCN(CC(=O)O)CC(=O)[O][Hg][O]C(=O)C1 |  |  |  |  |  |  | GI50 (MDA-N): 16.7 µM; TGI (MDA-N): 31.7 µM |
| CC(=O)Nc1ccc(SC#N)c2c(NC(C)=O)cccc12 | > 100 µM | > 100 µM | > 100 µM | > 100 µM | > 100 µM |  |  |
| COc1cc2c(cc1C1COc3cc4occc4cc3C1=O)OCO2 (stereo not given) |  |  |  |  |  |  | TGI (MDA-N): > 100 µM |
| Cc1ccc2c(C3Cc4ccccc4N3C(=O)/C=C\C(=O)O)c(C)[nH]c2c1 (stereo not given) | > 100 µM | > 100 µM |  |  | 45.3 µM |  |  |
| COc1ccc(-c2cc(Cc3cccs3)c(=O)[nH]n2)cc1 |  | > 100 µM |  |  | > 100 µM |  |  |
| NC(=O)c1csc(C2OC(CO)C(O)C2O)n1 (stereo not given) | > 7200 µM | 3160 µM | > 3980 µM |  | > 9480 µM | 732 µM | GI50 (MDA-N): 59.5 µM; TGI (MDA-N): > 6490 µM; TGI (P388 leukemia): 159 µM; TGI (P388/ADR leukemia): 84.1 µM; TGI (SN12K1 renal): > 9220 µM |
| COC(=O)C1(C)CCc2c(OC)ccc(OC)c2C1=O (stereo not given) | > 100 µM | > 100 µM |  | > 100 µM | > 100 µM | > 100 µM |  |
| CCOC(=O)C1C(=S)NC(=O)C1C#N (stereo not given) | > 100 µM | > 100 µM | > 100 µM | > 100 µM |  |  |  |

| Structure (SMILES) | TGI (DLD-1 colon) | TGI (DMS 114 small cell lung) | TGI (HOP-18 NSCLC) | TGI (RXF-631 renal) | TGI (SNB-78 CNS) | TGI (XF 498 CNS) | also measured |
| --- | --- | --- | --- | --- | --- | --- | --- |
| CCC(=O)C12OC3OC(C)(C)OC3C1OC(C)(C)O2 (stereo not given) | > 100 µM |  |  | > 100 µM | > 100 µM | > 100 µM |  |
| CCN(CC)CC1c2ccccc2C(CNc2ccccc2)N1C (stereo not given) | > 100 µM | > 100 µM |  | > 100 µM | > 100 µM | > 100 µM |  |
| Cc1ccc(-c2nnc(-c3nn(-c4ccccc4)c4nc5ccccc5nc34)o2)cc1 | > 100 µM | 51.1 µM | 65.2 µM |  | > 100 µM | 25.4 µM |  |
| COc1ccccc1-c1cc(=O)c2cc(C)cnc2[nH]1 |  |  |  |  |  |  | GI50 (MDA-N): 4.41 µM; TGI (MDA-N): 24.9 µM |
| COc1cc2c(c(OC)c1OC)-c1ccc(SC)c(=O)cc1C(NC(=O)c1ccccc1)CC2 (stereo not given) | > 100 µM |  | > 100 µM |  | > 90.9 µM |  |  |
| N#CC(C#N)=C1NC(=O)CC(=O)N1 | > 100 µM | > 100 µM |  |  | > 100 µM | > 100 µM |  |
| COc1cc(C(=O)C/C(CCC(=O)Nc2ccccc2[N+](=O)[O-])=N\NC(N)=O)ccc1O |  | > 100 µM | > 100 µM | > 100 µM | > 100 µM | > 100 µM |  |
| C#C[C@]1(O)CCCC2=CC(=O)CC[C@@]21C | > 100 µM | > 100 µM | > 100 µM |  |  |  |  |
| CC#CCC1CCC(OCC)=CC1=O (stereo not given) | > 100 µM | > 100 µM | > 100 µM | > 100 µM | > 100 µM | > 100 µM |  |
| CC/C=C\C/C=C\C/C=C\CCCCCCCC(=O)OCC(O)CO (stereo not given) | > 100 µM | > 71 µM | > 100 µM |  | > 73.8 µM | > 100 µM |  |
| Nc1nc(OCc2ccccc2)c2[nH]cnc2n1 | 400 µM | 191 µM | 335 µM | 309 µM | 400 µM |  |  |
| N#CC(=C1C=CC(=NO)C=C1)c1ccc(Cl)cc1 | 39 µM | 31.5 µM | > 100 µM |  |  |  |  |
| OCC12C3C4C5C3C1C5C42 (stereo not given) |  |  |  |  |  |  | TGI (MDA-N): > 100 µM |
| O=C1c2ccccc2-c2cc([N+](=O)[O-])c([N+](=O)[O-])cc21 |  |  |  |  |  |  | TGI (MDA-N): 5.18 µM |
| O=C1CC(c2c[nH]c3ccccc23)C(=O)N1 (stereo not given) | > 100 µM |  |  | > 100 µM | > 100 µM | > 100 µM |  |
| O=C1OC(=O)C(=C\c2ccc3c(c2)OCO3)/C1=C/c1ccc2c(c1)OCO2 |  |  |  |  |  |  | TGI (MDA-N): > 100 µM |
